target: Recombinant human IDO (Homo sapiens, UniProt P14902); experiment: Bridge-IT tryptophan fluorescence assay of human IDO-1 inhibition; type: biochemical; conditions: recombinant human IDO 7.5 nM, L-tryptophan
In short: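 Two protocol variants: 100 μM L-Trp for 90 min at 37 °C, or 30 min enzyme–compound pre-incubation at 25 °C, then 50 μM L-Trp for 60 min at 25 °C. Reaction stopped in Bridge-IT solution A for 30 min at 30 °C.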

Chain of Recombinant human IDO (P14902 whole entry): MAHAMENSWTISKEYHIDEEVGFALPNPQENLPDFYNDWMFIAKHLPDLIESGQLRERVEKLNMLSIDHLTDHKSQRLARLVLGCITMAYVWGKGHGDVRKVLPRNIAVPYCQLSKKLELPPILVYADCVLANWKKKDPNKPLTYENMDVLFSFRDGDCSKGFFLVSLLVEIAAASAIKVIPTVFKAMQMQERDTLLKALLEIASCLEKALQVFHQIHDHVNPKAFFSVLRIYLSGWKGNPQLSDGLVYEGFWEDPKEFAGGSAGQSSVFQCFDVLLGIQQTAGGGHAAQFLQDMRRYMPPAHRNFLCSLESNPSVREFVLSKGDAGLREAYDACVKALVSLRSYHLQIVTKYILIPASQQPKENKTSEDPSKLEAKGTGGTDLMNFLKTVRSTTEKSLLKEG

`OC1CCC(F)(CCC2c3cc(F)ncc3-c3cncn32)CC1` (single isomer, unassigned) [Compound 58a, 4-fluoro-4-[2-[10-fluoro-4,6,11-triazatricyclo[6.4.0.0^[2,6]]dodeca-1(8),2,4,9,11-pentaen-7-yl]ethyl]cyclohexan-1-ol] and `COc1cc2c(cn1)-c1cncn1C2CCC1(F)CCCCC1` (single isomer, unassigned) [Compound 15b, 7-[2-(1-fluorocyclohexyl)ethyl]-10-methoxy-4,6,11-triazatricyclo[6.4.0.0^[2,6]]dodeca-1(8),2,4,9,11-pentaene] cannot be ordered by IC50: > 1000 nM for the first, > 1000 nM for the second.

First: Fc1cccc2c1C(CCC1(F)CCOCC1)n1cncc1-2 (single isomer, unassigned) [Compound 95b, 6-fluoro-5-[2-(4-fluorooxan-4-yl)ethyl]-5H-imidazo[4,3-a]isoindole]
Second: NC(=O)C1CCC(F)(CCC2c3c(F)cccc3-c3cncn32)CC1 (single isomer, unassigned) [Compound 81d, 4-fluoro-4-[2-[6-fluoro-5H-imidazo[4,3-a]isoindol-5-yl]ethyl]cyclohexane-1-carboxamide]
The IC50 of the first is higher: 100 to 1000 nM for the first, < 100 nM for the second. The second is the more potent here.

Compared with `COc1ccc2c(n1)C(CC(O)C1CCC3(CC1)CC3)n1cncc1-2` (single isomer, unassigned) [Compound 53b, 2-[10-methoxy-4,6,9-triazatricyclo[6.4.0.0^[2,6]]dodeca-1(8),2,4,9,11-pentaen-7-yl]-1-[spiro[2.5]octan-6-yl]ethan-1-ol], `COc1ccc2c(n1)C(CC(N)C1CCC(C)(C)CC1)n1cncc1-2` (single isomer, unassigned) [Compound 119d, 1-(4,4-dimethylcyclohexyl)-2-[10-methoxy-4,6,9-triazatricyclo[6.4.0.0^[2,6]]dodeca-1(8),2,4,9,11-pentaen-7-yl]ethan-1-amine] is higher in IC50: < 100 nM for the first, > 1000 nM for the second.

First: CC1(C)CCC(C(O)CC2c3nc(F)ccc3-c3cncn32)CC1 (single isomer, unassigned) [Compound 25c, 1-(4,4-dimethylcyclohexyl)-2-[10-fluoro-4,6,9-triazatricyclo[6.4.0.0^[2,6]]dodeca-1(8),2,4,9,11-pentaen-7-yl]ethan-1-ol]
Second: OC(CC1c2nc(C3CC3)ccc2-c2cncn21)C1CCC(F)(F)CC1 (single isomer, unassigned) [Compound 57b, 2-[10-cyclopropyl-4,6,9-triazatricyclo[6.4.0.0^[2,6]]dodeca-1(8),2,4,9,11-pentaen-7-yl]-1-(4,4-difluorocyclohexyl)ethan-1-ol]
The IC50 of the first is higher: > 1000 nM for the first, 100 to 1000 nM for the second. The second is the more potent here.

`OC(CC1c2c(Cl)cccc2-c2cncn21)C1(F)CCCCC1` (single isomer, unassigned) [Compound 83c, 2-[6-chloro-5H-imidazo[4,3-a]isoindol-5-yl]-1-(1-fluorocyclohexyl)ethan-1-ol] and `COc1cccc2c1-c1cncn1C2CCC1(F)CCCCC1` (single isomer, unassigned) [Compound 42a, 5-(2-(1-fluorocyclohexyl)ethyl)-9-methoxy-5H-imidazo[5,1-a]isoindole] cannot be ordered by IC50: > 1000 nM for the first, > 1000 nM for the second.

First: OC(CC1CCCCC1)CC1c2ncccc2-c2cncn21 (single isomer, unassigned) [Compound 62a, 1-cyclohexyl-3-[4,6,9-triazatricyclo[6.4.0.0^[2,6]]dodeca-1(8),2,4,9,11-pentaen-7-yl]propan-2-ol]
Second: COc1cc2c(cn1)-c1cncn1C2CCC1(F)CCCCC1 (single isomer, unassigned) [Compound 15a, 7-[2-(1-fluorocyclohexyl)ethyl]-10-methoxy-4,6,11-triazatricyclo[6.4.0.0^[2,6]]dodeca-1(8),2,4,9,11-pentaene]
The IC50 of the first is lower: 100 to 1000 nM for the first, > 1000 nM for the second.

With `COc1ccc2c(n1)C(CCC1(F)CCC3(CC1)CC3)n1cncc1-2` (single isomer, unassigned) [Compound 54b, 7-(2-{6-fluorospiro[2.5]octan-6-yl}ethyl)-10-methoxy-4,6,9-triazatricyclo[6.4.0.0^[2,6]]dodeca-1(8),2,4,9,11-pentaene] the IC50 was > 1000 nM.

— US9771370B2, “Compounds for the inhibition of indoleamine-2,3-dioxygenase” (Merck Patent GmbH, priority 2014, dated 2017)
